Laboratory results from patent US11963972B2, “Antiviral agents and nucleoside analogs for treatment of Zika virus” (priority 2016, dated 2024).

What was measured:
[1] = Cytotoxicity MTT assay in HepG2 cells; format: cell-based; settings: human
Description: (§1) The toxicity of the compounds can be assessed in Vero, human PBM, CEM (human lymphoblastoid), and can be assessed in MT-2, and HepG2 cells, as described previously (see Schinazi R. F., Sommadossi J.-P., Saalmann V., Cannon D. L., Xie M.-Y., Hart G. C., Smith G. A. & Hahn E. F. Antimicrob. Agents Chemother. 1990, 34, 1061-67). Cycloheximide can be included as positive cytotoxic control, and untreated cells exposed to solvent can be included as negative controls. The cytotoxicity (IC50) can be obtained from the concentration-response curve using the median effective method described previously (see Chou T.-C. & Talalay P. Adv. Enzyme Regul. 1984, 22, 27-55; Belen'kii M. S. & Schinazi R. F. Antiviral Res. 1994, 25, 1-11).

[2] = Cytotoxicity MTT assay in CEM cells; format: cell-based; settings: human
Description: as §1

[3] = test system: ZIKV Puerto Rico strain (PRVABC59); assay: ZIKV CPE MTS assay in human neuroblastoma (U251) cells; format: cell-based, Zika virus; settings: Zika virus; for IC50: U-251, 120 h, read-out: ZIKV CPE MTS Assay IC50 (μM) H251
Protocol: (§2) […] Cell cytopathic effect (CPE) MTS assay (CellTiter 96@k) AQueous One Solution Cell Proliferation Promega kit, Promega) was measured four (Vero) or five (U251 or Huh7) days after compound addition to determine the levels of replication inhibition.

[4] = Cytotoxicity MTT assay in PBM cells; format: cell-based; settings: human
Protocol: v) Cellular Toxicity Assays: Nucleoside and nucleoside monophosphate prodrugs can be evaluated for their potential toxic effects on P4/R5 cells, MT-2 cells and uninfected PHA-stimulated human PBM cell. Log-phase P4/R5, MT-2, and PHA-stimulated human PBM cells can be seeded at 5×10^3 to 5×10^4 cells/well in 96-well cell culture plates containing 10-fold serial dilutions of the test drug. The cultures can be incubated for 2-4 days, after which 3-(4,5-dimethylthiazol-2-yl)-2,5-diphenyltetrazolium bromide (MTT) dye solution (Promega, Madison, WI) can be added to each well and incubated overnight. The reaction can be stopped with stop solubilization solution (Promega, Madison, WI) and plates can be read at a wavelength of 570 nm. The median 50% cytotoxic concentration (CC50) can be determined from the concentration-response curve using the median effect method.
as §1

[5] = Cytotoxicity MTT assay in Huh7 cells; format: cell-based; settings: human
[6] = Cytotoxicity MTT assay in Vero cells; format: cell-based; settings: African green monkey
Description: as §1

[7] = test system: ZIKV Puerto Rico strain (PRVABC59); assay: ZIKV CPE MTS assay in Vero cells; format: cell-based, Zika virus; settings: Zika virus; for IC50: 96 h, read-out: ZIKV CPE MTS Assay IC50 (μM) Vero; for inhibition at 20 µM / inhibition at 10 µM: read-out: ZIKV CPE MTS Assay percentage of inhibition at the concentration, Vero
Protocol: as §2

[8] = test system: ZIKV Puerto Rico strain (PRVABC59); assay: ZIKV CPE MTS assay in Huh7 cells; format: cell-based, Zika virus; settings: Zika virus; for IC50: Huh-7, 120 h, read-out: ZIKV CPE MTS Assay IC50 (μM) Huh7
Protocol: as §2

Zika virus = assay: Zika-infected Vero cell model, 4G2 antibody staining, FACS; format: cell-based; settings: 72 h, MOI 0.1, Day 3, FACS, read-out: percent inhibition of Zika-infected Vero cells
Protocol: At 8 AM on Day 1, 10,000 cells/well were plated in a 96 well plate. At 2 PM, MOI 0.1 Zika virus was added. At 3 PM, virus inoculum was removed, and various concentrations of drug-containing medium was added, at multiple concentrations (duplicates of […]).
On Day 3, supernatants were harvested, and frozen for later RT-PCR confirmation. Cells were harvested, stained with 4G2 antibody, and intracellular virus was quantified with FACS. The EC50/EC90 were then calculated.
Concentrations of 10, 1, 0.1, 0.01 μM were assayed in duplicate for 10 total drugs. All cells were harvested, but the only cells stained with antibody were those contacted with the following compounds, in the listed concentrations:
All gates were established using uninfected cells as a control, and were maintained for all test conditions.

DENV-2 [9] = assay: DENV-2 VERO infectious assay; format: cell-based, Dengue virus; settings: Dengue virus, DENV2, Vero
DENV-2 [10] = assay: DENV-2 Huh-7 infectious assay; format: cell-based; settings: Dengue virus, DENV2, Huh-7
[11] = Vero cells, MOI=0.01, four days
[12] = U-251, read-out: ZIKV CPE MTS Assay percentage of inhibition at the concentration, H251

Row | SMILES | IC50 [5] | IC50 [6] | IC50 [2] | IC50 [3] | inhibition at 20 µM [3, 12] | IC50 ([4]; PBM cells) | IC50 ([7]; Vero) | inhibition at 20 µM ([7]; Vero) | IC50 [8] | other results
1 | CC1(O)C(O)[C@@H](CO)O[C@H]1n1ccc(N)nc1=O (stereo partly drawn) | > 100 µM | > 100 µM | – | – | – | – | – | – | – | IC50 [1]: 59.1 µM; IC50 ([2]; CEM lymphoblastoid cells): 84.3 µM; IC50 ([3]; H251 cells, MOI=0.5, five days): 16.3 µM; IC50 ([4]; PHA-stimulated human PBM cells): 65.4 µM; IC50 [7, 11]: 9.2 µM; IC50 ([8]; Huh7 cells, MOI=0.5, five days): 9.3 µM
2 | C[C@@]1(O)C(O)[C@@H](CO)O[C@H]1n1cnc2c(N)ncnc21 (stereo partly drawn) | – | – | – | – | – | – | – | – | – | IC50 ([3]; H251 cells, MOI=0.5, five days): > 20 µM; inhibition at 20 µM ([3]; U-251, H251 cells, at 20 μM, read-out: ZIKV CPE MTS Assay percentage of inhibition at the concentration, H251): 24%; IC50 [7, 11]: 20 µM; IC50 ([8]; Huh7 cells, MOI=0.5, five days): 3.4 µM
3 | C[C@@]1(O)C(n2cnc3c(N)ncnc32)O[C@H](CO)[C@@H]1O (stereo partly drawn) | – | > 100 µM | – | – | – | – | – | – | – | IC50 ([2]; CEM lymphoblastoid cells): > 100 µM; IC50 ([3]; H251 cells, MOI=0.5, five days): > 10 µM; inhibition at 10 µM ([3]; U-251, H251 cells, at 10 μM, read-out: ZIKV CPE MTS Assay percentage of inhibition at the concentration, H251): 37%; IC50 ([4]; PHA-stimulated human PBM cells): > 100 µM; IC50 [7, 11]: 13.1 µM; IC50 ([8]; Huh7 cells, MOI=0.5, five days): 1.7 µM
4 | CCOC(=O)[C@H](C)NP(=O)(OCC1C(n2cnc3c(N)cc(N)nc32)C[C@](C)(O)[C@@H]1O)Oc1ccccc1 (stereo partly drawn) | > 100 µM | > 100 µM | > 100 µM | > 20 µM | 42% | > 100 µM | > 20 µM | 1% | 2.9 µM | –
5 | CCOC(=O)[C@@H](C)NP(=O)(OC[C@H]1O[C@@H](n2ccc(NO)nc2=O)C(C)(O)C1O)Oc1ccccc1 (stereo partly drawn) | > 100 µM | > 100 µM | > 100 µM | > 20 µM | 27% | > 100 µM | > 20 µM | 1% | 5 µM | –
6 | CCOC(=O)[C@H](C)NP(=O)(OC[C@H]1O[C@@H](n2cnc3c(N)nc(N=[N+]=[N-])nc32)C(C)(O)C1O)Oc1ccccc1 (stereo partly drawn) | > 100 µM | > 100 µM | > 100 µM | > 20 µM | 34% | > 100 µM | > 20 µM | 3% | < 20 µM | IC50 [1]: > 100 µM; inhibition at 20 µM ([8]; Huh-7, read-out: ZIKV CPE MTS Assay percentage of inhibition at the concentration, Huh7): 88%
7 | CCOC(=O)[C@H](C)NP(=O)(OCC1O[C@@H](n2cnc3c(NOC)nc(N)nc32)[C@](C)(O)[C@@H]1O)Oc1ccccc1 (stereo partly drawn) | 94 µM | > 100 µM | 28 µM | > 20 µM | 43% | > 100 µM | > 20 µM | 19% | 4.7 µM | –
8 | CC(C)OC(=O)[C@H](C)NP(=O)(OC[C@H]1O[C@@H](n2ccc(NO)nc2=O)C(C)(O)C1O)Oc1ccccc1 (stereo partly drawn) | > 100 µM | > 100 µM | > 100 µM | > 20 µM | 3% | > 100 µM | > 20 µM | 1% | 0.8 µM | –
9 | CC(C)OC(=O)[C@H](C)NP(=O)(OCC1O[C@@H](n2cnc3c(N=[N+]=[N-])nc(N)nc32)[C@](C)(O)[C@@H]1O)Oc1ccccc1 (stereo partly drawn) | > 100 µM | > 100 µM | > 100 µM | > 20 µM | 20% | > 100 µM | > 20 µM | 1% | 11.5 µM | –
10 | CC(C)OC(=O)[C@H](C)NP(=O)(OCC1O[C@@H](n2cnc3c(N)nc(N)nc32)[C@](C)(O)[C@@H]1O)Oc1ccccc1 (stereo partly drawn) | > 100 µM | > 100 µM | > 100 µM | > 20 µM | 25% | > 100 µM | > 20 µM | 1% | 3.7 µM | –
11 | CC(C)OC(=O)[C@H](C)NP(=O)(OC[C@H]1O[C@@H](n2cc(F)c3c(N)ncnc32)[C@](C)(O)C1O)Oc1ccccc1 (stereo partly drawn) | – | > 100 µM | 92.1 µM | > 10 µM | – | 34.7 µM | > 20 µM | – | 7.6 µM | inhibition at 10 µM [3, 12]: 1%
12 | CC(C)OC(=O)[C@H](C)N[P@](=O)(OC[C@H]1O[C@@H](n2ccc(=O)[nH]c2=O)[C@](C)(F)[C@@H]1O)Oc1ccccc1 | 49.3 µM | > 100 µM | > 100 µM | > 20 µM | 17% | > 100 µM | > 20 µM | 1% | 5.7 µM | –
13 | CC(C)OC(=O)[C@H](C)NP(=O)(OC[C@H]1O[C@@H](n2ccc(=O)[nH]c2=O)[C@@](F)(Cl)C1O)Oc1ccccc1 (stereo partly drawn) | – | > 100 µM | > 100 µM | – | – | > 100 µM | < 10 µM | – | – | inhibition at 10 µM ([7]; Vero): 76%
14 | CC(C)OC(=O)[C@H](C)NP(=O)(OC[C@H]1O[C@@H](n2ccc(N)nc2=O)C(F)(Cl)C1O)Oc1ccccc1 (stereo partly drawn) | – | > 100 µM | > 100 µM | – | – | > 100 µM | < 10 µM | – | – | inhibition at 10 µM ([7]; Vero): 80%
15 | CC1(F)C(O)[C@@H](CO)O[C@H]1n1ccc(N)nc1=O (stereo partly drawn) | – | > 100 µM | – | – | – | – | – | – | – | IC50 [1]: > 100 µM; IC50 ([2]; CEM lymphoblastoid cells): > 100 µM; IC50 ([4]; PHA-stimulated human PBM cells): > 100 µM; IC50 [7, 11]: ≤ 10 µM; inhibition at 10 µM ([7]; Vero cells, at 10 μM): 65%
16 | C[C@@H]1C[C@@H]([C@H](O)CC2CC(=O)NC(=O)C2)C(=O)[C@@H](C)C1 | – | 0.2 µM | 0.2 µM | – | – | 0.9 µM | – | – | – | IC50 [1]: 0.3 µM
17 | CC1(O)C(O)[C@@H](CO)O[C@H]1n1cc(F)c2c(N)ncnc21 (stereo in doubt) | – | – | – | – | – | – | – | – | – | inhibition at 0.01 µM (Zika virus): 21%; inhibition at 0.1 µM (Zika virus): 59%; inhibition at 1 µM (Zika virus): 73%; inhibition at 10 µM (Zika virus): 83%
18 | CC1(O)C(O)[C@@H](CO)O[C@H]1n1cc(F)c2c(N)ncnc21 (stereo partly drawn) [drawing 83] | – | – | – | – | – | – | – | – | – | EC50 (DENV-2 [9]): 8.6 µM; EC50 (DENV-2 [10]): 2.6 µM
19 | O=c1nc(NO)ccn1[C@@H]1O[C@H](CO)C(O)C1O (stereo partly drawn) [drawing 85] | – | – | – | – | – | – | – | – | – | inhibition at 0.01 µM (Zika virus): 0%; inhibition at 0.1 µM (Zika virus): 5%; inhibition at 1 µM (Zika virus): 35%; inhibition at 10 µM (Zika virus): 57%
20 | CC1(O)C(O)[C@@H](CO)O[C@H]1n1cc(F)c2c(N)ncnc21 (stereo partly drawn) [drawing 91] | 17.5 µM | > 100 µM | – | – | – | – | – | – | – | IC50 ([2]; CEM lymphoblastoid cells): 33.6 µM; IC50 ([3]; H251 cells, MOI=0.5, five days): 6.1 µM; IC50 ([4]; PHA-stimulated human PBM cells): 83.7 µM; IC50 [7, 11]: 5.1 µM; IC50 ([8]; Huh7 cells, MOI=0.5, five days): 1.7 µM
21 | O=C(O)c1cc(/N=N/c2ccc(S(=O)(=O)Nc3ccccn3)cc2)ccc1O [drawing 106] | – | > 100 µM | – | – | – | – | – | – | – | IC50 [1]: > 100 µM; IC50 ([2]; CEM lymphoblastoid cells): > 100 µM; IC50 ([4]; PHA-stimulated human PBM cells): > 100 µM
22 | O=c1nc(NO)ccn1[C@@H]1O[C@H](CO)C(O)C1O (stereo partly drawn) [drawing 107] | – | 7.7 µM | – | – | – | – | – | – | – | IC50 ([2]; CEM lymphoblastoid cells): 2.5 µM; IC50 ([3]; H251 cells, MOI=0.5, five days): 4.3 µM; IC50 ([4]; PHA-stimulated human PBM cells): 30.6 µM; IC50 [7, 11]: 3.2 µM; IC50 ([8]; Huh7 cells, MOI=0.5, five days): 5.1 µM
